{"source": "patent US9480649B2", "about": "“Lipid microparticle growth factor formulations” (Biopharm Gesellschaft zur biotechnologischen Entwicklung …, priority 2006, dated 2016)", "key": {"[1]": {"settings": "for concentration prepared and stabilized using the lipid microparticle formulation: pH 7", "protocol": "The tube was vortexed briefly. • c. The sample was placed in an ice-ethanol bath to maintain a temperature of approximately 4° C. • d. The tip of a probe sonicator was placed just above the bottom of the microcentrifuge tube. It was confirmed that the sonicator tip was not touching the sides or the bottom of the tube. • e. The sample was sonicated for 2 h at setting 10 on a 25% duty cycle with a period of 20 sec, producing an average power output of 22 watts. • f. The ice-ethanol bath was changed every 12 min to maintain temperature. • g. […] The solution was centrifuged for 4 min at 12,000 rpm to remove any metal particulates left by the probe tip. • i. 1 ml of the LMP was transferred to a clean 1.5 microcentrifuge tube.\nPolyphenols are a group of chemical substances found in plants, characterized by the presence of more than one phenol group per molecule. The term comprises tannins, lignins and flavonoids. […] Myricetin (C15H10O8, MW 318.24) is a naturally occurring flavonoid found in many food sources known to have antioxidant and anti-inflammatory properties. […] Despite its therapeutic potential, myricetin has very limited water solubility. […] In an effort to increase the solubility of myricetin to enhance its therapeutic potential, myricetin was incorporated into lipid microparticles as follows: • j. 1 mg myricetin was added to the tube and vortexed to combine. […] The myricetin mixture was again placed over the ice-ethanol bath and fitted with the probe sonicator. • l. The mixture was sonicated on the same settings for 2.5 h, again replacing the ice-ethanol bath every 12-15 min. • m. […] The solution was centrifuged again for 5 min at 12,000 rpm to remove any metal particulates. • o. The solution was then titrated to pH 7 with 1 M NaOH.\nIn an effort to increase solubility, Vitamin E was incorporated into lipid LMP as follows: • j. 5 uL (4.65 mg) of vitamin E was added to the tube and vortexed to combine. • k. The Vitamin E mixture was placed over the ice-ethanol bath again and fitted with the probe sonicator. • l. The mixture was sonicated on the same settings for 2.5 h, again replacing the ice-ethanol bath every 12-15 min. • m. […] The solution was centrifuged again for 4 min at 12,000 rpm to remove any metal particulates. • o. The solution was then titrated to pH 7 with 1 M NaOH.\nIn an effort to increase the solubility of Leu-Leu-Leu to enhance it's therapeutic potential, Leu-Leu-Leu was incorporated into lipid microparticles as follows: • j. 8 mg Leu-Leu-Leu was added to the tube and vortexed to combine. […] The Leu-Leu-Leu mixture was again placed over the ice-ethanol bath and fitted with the probe sonicator. • l. The mixture was sonicated on the same settings for 2.5 h, again replacing the ice-ethanol bath every 12-15 min. • m. […] The solution was centrifuged again for 5 min at 12,000 rpm to remove any metal particulates. • o. The solution was then titrated to pH 7 with 1 M NaOH."}, "Solubility in water": {"experiment": "Solubility in water", "format": "physicochemical", "settings": "based on our own results"}, "[2]": {"settings": "cited from earlier work"}, "[3]": {"settings": "rat, in vivo", "experimental": "Rats were anesthetized with sodium pentobarbital (50 mg/kg intraperitoneal), and given additional doses as needed. Rats were placed on their back, and body temperature was maintained with a heating pad (rectal thermal probe set at 37° C.). Prior to onset of drug delivery, the descending aorta was cannulated for all experimental groups.\nGDF-5 Administration: GDF-5 was ^125I labelled and formulated in 20 mM sodium acetate buffer at a pH of 4.25. For intranasal administration, a mixture of ^125I-GDF-5 and unlabeled GDF-5 was delivered as 10 μL drops alternating nares every two minutes with an average total volume of 113 μL (7.0 nmol and 38 pCi). A second formulation of GDF-5 for intranasal delivery was prepared in 200 mM sodium acetate buffer at pH 4.0 and delivered as an average total volume of 91 μL (5.2 nmol, 28 uCi). For intravenous administration, a mixture of ^125I-GDF-5 and unlabeled GDF-5 was delivered as an injection into the tail vein. […]\nMeasurement of ^125I-labelled GDF-5 with gamma counting: Peripheral and CNS rat tissues were dissected into anatomical areas. […] The concentration of GDF-5 in each tissue sample (nM) was calculated using the counts per minute, tissue weight, and specific activity measurements from standard samples of the GDF-5 mixture delivered."}, "[4]": {"experiment": "Solubility of GDF-5 in organic solvents (RP-HPLC of supernatant after centrifugation)", "format": "physicochemical", "settings": "dichlormethane, acetonitrile and DMSO solutions, centrifuged", "source_text": "The inventors of the present application have proceeded with an extensive investigation in order to overcome the above described problems. […] Hydrophobic drugs are very often highly soluble in the volatile organic solvents. […] After adding GDF-5, dichlormethane, acetonitrile and DMSO solutions were centrifuged and the GDF-5 content of the supernatant was checked with RP-HPLC.\nAfter adding GDF-5, solutions were centrifuged and the GDF-5 content of supernatant was checked with RP-HPLC."}, "[5]": {"system": "cultured midbrain neurons", "settings": "cited from earlier work"}, "[6]": {"settings": "cited from earlier work", "remark": "listed apart in the source"}}, "note": "Like-named read-outs stand apart in the source and are kept apart here. Peptide text beside a SMILES is read from it."}
{"compound": "Vitamin E", "values": [{"measurement": "increase of aqueous solubility at neutral pH using the LMP formulation", "setting": "[1]", "value": "increased greatly"}, {"measurement": "concentration prepared and stabilized using the lipid microparticle formulation", "setting": "[1]", "value": 4650, "unit": "µg/mL"}]}
{"compound": "O=c1c(O)c(-c2cc(O)c(O)c(O)c2)oc2cc(O)cc(O)c12", "note": "[myricetin]", "values": [{"measurement": "increase of aqueous solubility at neutral pH using the LMP formulation", "setting": "[1]", "value": 15.4, "unit": "fold"}, {"measurement": "concentration prepared and stabilized using the lipid microparticle formulation", "setting": "[1]; 2.5 h", "value": 1000, "unit": "µg/mL"}, {"measurement": "solubility", "setting": "Solubility in water", "value": 65, "unit": "µg/mL"}]}
{"compound": "growth and differentiation factor-5 [GDF-5]", "values": [{"measurement": "pH threshold for solubility", "setting": "[2]; aqueous solutions of GDF-5", "value": 4.3}, {"measurement": "pH above which the protein starts precipitating", "setting": "[2]; aqueous solutions, profile shown in EP 1 462 126", "value": "above 4.25"}, {"measurement": "blood exposure, intravenous relative to intranasal", "setting": "[3]", "value": "twice as great"}, {"measurement": "midbrain concentration, intravenous relative to intranasal", "setting": "[3]", "value": "less than half"}, {"measurement": "retrieval percentage of GDF-5 in supernatant", "setting": "[4]", "value": "below 15%"}, {"measurement": "concentration at which neuroprotective effects have been demonstrated", "setting": "[5]", "value": 1, "unit": "nM"}]}
{"compound": "CC(C)C[C@H](NC(=O)[C@H](CC(C)C)NC(=O)[C@@H](N)CC(C)C)C(=O)O", "note": "[Leu-Leu-Leu] (H-Leu-Leu-Leu-OH; N-terminus and C-terminus assumed)", "values": [{"measurement": "increase of aqueous solubility at neutral pH using the LMP formulation", "setting": "[1]", "value": "over three-fold"}, {"measurement": "concentration prepared and stabilized using the lipid microparticle formulation", "setting": "[1]", "value": 8000, "unit": "µg/mL"}, {"measurement": "solubility", "setting": "Solubility in water", "value": "~2500", "unit": "µg/mL"}]}
{"compound": "beta amyloid 1-42", "values": [{"measurement": "solubility in aqueous solution", "setting": "[6]; pH 3", "value": "very soluble"}, {"measurement": "solubility in aqueous solution", "setting": "[6]; pH 7", "value": "essentially insoluble"}, {"measurement": "solubility in aqueous solution", "setting": "[6]; physiological pH, e.g., pH 7.4", "value": "very low solubility"}]}
